Data on two compounds can be found in article PMC5641089, “WX-132-18B, a novel microtubule inhibitor, exhibits promising anti-tumor effects” (Oncotarget, 2017).

Assay [1] has as its system T1, tubulin.
T1 construct: tubulin prepared from fresh dog brain tissue; with alpha/beta-tubulin heterodimer
Put plainly: competitive colchicine-tubulin fluorescence assay; limited trypsin proteolysis. In kind it is binding, Canis lupus familiaris.

In assay [2] the test system is T1, tubulin. Description: competition with BODIPY FL-vinblastine (fluorescence). It counts as binding, Canis lupus familiaris.

With `COc1ccc2c(c1)NC(=O)CN2c1nc(C)nc2ccccc12` [WX-132-18B], in the assay with tubulin [1], the IC50 was 0.47 ± 0.1 µM. `CC[C@]1(O)C[C@H]2CN(CCc3c([nH]c4ccccc34)[C@@](C(=O)OC)(c3cc4c(cc3OC)N(C=O)[C@H]3[C@@](O)(C(=O)OC)[C@H](OC(C)=O)[C@]5(CC)C=CCN6CC[C@]43[C@@H]65)C2)C1` [vincristine] came in with an IC50 with tubulin [2] of 6.97 ± 1.61 µM.

The IC50 is the concentration that inhibits the measured activity by half. The low end stands for inhibition by little substance, the high end for a need for much substance.
